Experimental data from patent US7989587B2, “SSX-2 peptides presented by HLA class II molecules” (Ludwig Institute for Cancer Research Ltd., priority 1999, dated 2011).

Tested on: SSX-2 specific CD4^+ T cells
Test: Intracellular IFN-γ staining of CD4+ T cells from patient LAU672 after stimulation with SSX-2 peptide submixtures or single peptides
Format: cell-based, human
Conditions: representative CD4+ T cell clone, FIG. 2A
Experimental: Generation of SSX-2 specific CD4^+ T cells. In vitro sensitization of CD4^+ T cells was carried out as described previously for CD8^+ T cells. Briefly, 1 to 2×10^6 CD4^+ T cells highly enriched from peripheral blood mononuclear cells (PBMC) by magnetic cell sorting using a miniMACS device (Miltenyi Biotec, Sunnyvale, Calif., USA) were stimulated with a mixture containing peptides spanning the entire SSX-2 protein sequence (Ayyoub et al, J Immunol 2002. 32:2292-2299) (2 μM each) in the presence of irradiated autologous cells from the CD4^− fraction in CTL medium containing rhIL-2 (10 U/ml) and IL-7 ([…]). The enriched CD4^+ T cells were cultured 2-3 weeks prior to being tested. CD4^+ T cells secreting cytokines in response to peptide stimulation were isolated by cytokine guided flow cytometry cell sorting using the cytokine secretion detection kit (Miltenyi Biotec) and cloned by limiting dilution culture in the presence of PHA (Sigma), allogenic irradiated PBMC and rhIL-2 as described (Valmori et al., 2001, Cancer Res. 61:501-512). Clones were subsequently expanded by periodic (3-4 weeks) stimulation under the same conditions.
As recombinant SSX-2 protein became available, we initiated a study to identify CD4^+ T cell epitopes. To that purpose, we prepared monocyte-derived dendritic cells (DC) from patient LAU672 by isolating CD 14+ monocytes from PBMC by magnetic cell sorting. The obtained population (containing >95% CD14^+ cells) was cultured in CTL medium containing 1,000 U/ml of rhGM-CSF and 1,000 U/ml of rhIL-4 during 6 days. At the end of the culture period, DC were incubated with recombinant SSX-2 protein for 12 hours and used to stimulate autologous CD4^+ T cells isolated from PBMC by magnetic cell sorting.
Two weeks after stimulation, culture aliquots were tested using either a pool containing all SSX-2 overlapping peptides or submixtures, each composed of 3 peptides (P1-3, P4-6 etc., FIG. 1). […]
The presence of specific CD4^+ T cells was monitored by intracellular staining with INF-γ specific antibodies (FIG. 1A). […]

## WEKMKASEKIFYVYMKRKYEAM (SSX-2 peptide) [SSX-2 37-58]
  reactivity to single peptides in the submixture P4-6: active peptide
